Experimental data as given in patent US20260176320A1, “MODULATORS OF G-PROTEIN COUPLED RECEPTORS” (priority 2018, published 2026).
pEC50: −log10 of the molar value. Read-outs that look alike come from different tables or passages of the source.

Tests used:
Assay type in all cases: cell-based
GIP-R = molecular target: T1, GIP-R (Homo sapiens, UniProt P48546); experiment: HitHunter cAMP assay (GIP-R); details: cAMP; for Emax: read-out: (Emax) GIP-R; for Emax at 1 µM: read-out: (Emax) GIP-R at 1 μM, Table 3
T1 sequence (P48546 22-466): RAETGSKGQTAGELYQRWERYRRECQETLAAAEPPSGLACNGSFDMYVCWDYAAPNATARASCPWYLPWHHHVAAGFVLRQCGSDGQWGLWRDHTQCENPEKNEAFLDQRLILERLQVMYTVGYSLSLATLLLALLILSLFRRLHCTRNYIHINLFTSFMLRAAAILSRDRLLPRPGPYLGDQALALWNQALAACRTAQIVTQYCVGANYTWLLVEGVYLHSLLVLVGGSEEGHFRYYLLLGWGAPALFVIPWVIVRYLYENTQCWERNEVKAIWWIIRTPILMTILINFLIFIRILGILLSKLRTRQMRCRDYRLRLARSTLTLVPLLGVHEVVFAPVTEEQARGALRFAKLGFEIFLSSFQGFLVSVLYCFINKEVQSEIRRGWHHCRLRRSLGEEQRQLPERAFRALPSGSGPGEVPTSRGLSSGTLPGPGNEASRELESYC
Procedure, shortened: (§1)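 Suspension cells expressing each receptor (10,000 per well) in HBSS with 10 mM HEPES, 625 μM IBMX and 0.2% BSA were treated with a 22-point 2-fold agonist series in duplicate for 30 minutes at room temperature. cAMP was detected by antibody immunocompetition with luminescence read after overnight incubation.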

GLP-1R [1] = molecular target: T2, GLP-1R (Homo sapiens, UniProt P43220); experiment: PathHunter β-arrestin assay
Procedure, shortened: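 Cells seeded overnight, then medium replaced with medium containing 0.2% BSA; agonists added as 22-point 2-fold DMSO dilution series in duplicate and incubated 90 min at 37 °C, 5% CO2. After addition of detection solution, plates sat 3 h at room temperature in the dark; luminescence read.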

GLP-1R [2] = molecular target: T2, GLP-1R; experiment: HitHunter cAMP assay (GLP-1R); details: cAMP; for Emax: read-out: (Emax) GLP-1R
Procedure, shortened: as §1

[3] = Table 3, read-out: EC50 GIP-R/nM
[4] = Table 3A, read-out: EC50 GIP-R/nM
[5] = PathHunter β-arrestin assay, read-out: β-arrestin activity EC50
[6] = Table 3, read-out: EC50 GLP-1R/nM
[7] = Table 3A, read-out: EC50 GLP-1R/nM

T2 sequence (P43220 24-463): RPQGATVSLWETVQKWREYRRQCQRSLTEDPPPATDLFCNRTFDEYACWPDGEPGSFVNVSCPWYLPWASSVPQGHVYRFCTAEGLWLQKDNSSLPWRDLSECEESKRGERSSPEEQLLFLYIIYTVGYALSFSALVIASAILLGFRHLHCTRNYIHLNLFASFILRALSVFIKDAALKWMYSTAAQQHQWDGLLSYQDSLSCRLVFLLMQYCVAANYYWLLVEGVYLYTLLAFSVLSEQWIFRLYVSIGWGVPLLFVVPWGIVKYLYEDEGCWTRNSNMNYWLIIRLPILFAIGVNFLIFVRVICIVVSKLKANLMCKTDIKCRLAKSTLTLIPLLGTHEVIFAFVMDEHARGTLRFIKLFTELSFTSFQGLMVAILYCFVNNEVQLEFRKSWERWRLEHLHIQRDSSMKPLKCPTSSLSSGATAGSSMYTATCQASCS

Compound: CC[C@H](C)[C@H](NC(=O)[C@H](CO)NC(=O)[C@H](Cc1ccc(O)cc1)NC(=O)[C@H](CC(=O)O)NC(=O)[C@H](CO)NC(=O)[C@@H](NC(=O)[C@H](Cc1ccccc1)NC(=O)[C@@H](NC(=O)CNC(=O)[C@H](CCC(=O)O)NC(=O)CCCNC(=O)CCN1C(=O)CSC1=O)[C@@H](C)O)[C@@H](C)O)C(=O)N[C@@H](Cc1ccc(O)cc1)C(=O)N[C@@H](CC(C)C)C(=O)N[C@@H](CC(=O)O)C(=O)N[C@@H](CCCCN)C(=O)N[C@@H](CCC(N)=O)C(=O)N[C@@H](C)C(=O)N[C@@H](C)C(=O)NC(C)(C)C(=O)N[C@@H](CCC(=O)O)C(=O)N[C@@H](Cc1ccccc1)C(=O)N[C@H](C(=O)N[C@@H](CC(N)=O)C(=O)N[C@@H](Cc1c[nH]c2ccccc12)C(=O)N[C@@H](CC(C)C)C(=O)N[C@@H](CC(C)C)C(=O)N[C@@H](C)C(=O)NCC(=O)NCC(=O)N1CCC[C@H]1C(=O)N[C@@H](CO)C(=O)N[C@@H](CO)C(=O)NCC(=O)N[C@@H](C)C(=O)N1CCC[C@H]1C(=O)N1CCC[C@H]1C(=O)N1CCC[C@H]1C(=O)N[C@@H](CO)C(=O)N[C@@H](CCCCN)C(N)=O)C(C)C [Compound 165]
- Emax (GIP-R; Table 3): 91 to 98%
- EC50 (GIP-R; [3]): 1 to 10 nM
- Emax (GIP-R; Table 3A): 91 to 98%
- EC50 (GIP-R; [4]): 1 to 10 nM
- pEC50 (GLP-1R [1]; [5]): < 6.00
- Emax (GLP-1R [2]; Table 3): 101 to 106%
- EC50 (GLP-1R [2]; [6]): 0.1 to 1 nM
- Emax (GLP-1R [2]; Table 3A): 101 to 106%
- EC50 (GLP-1R [2]; [7]): 0.1 to 1 nM

Compound: CC[C@H](C)[C@H](NC(=O)[C@H](CO)NC(=O)[C@H](Cc1ccc(O)cc1)NC(=O)[C@H](CC(=O)O)NC(=O)[C@H](CO)NC(=O)[C@@H](NC(=O)[C@H](Cc1ccccc1)NC(=O)[C@@H](NC(=O)CNC(=O)[C@H](CCC(=O)O)NC(=O)CC(=O)NCCCN1C(=O)CSC1=O)[C@@H](C)O)[C@@H](C)O)C(=O)N[C@@H](Cc1ccc(O)cc1)C(=O)N[C@@H](CC(C)C)C(=O)N[C@@H](CC(=O)O)C(=O)N[C@@H](CCCCN)C(=O)N[C@@H](CCC(N)=O)C(=O)N[C@@H](C)C(=O)N[C@@H](C)C(=O)NC(C)(C)C(=O)N[C@@H](CCC(=O)O)C(=O)N[C@@H](Cc1ccccc1)C(=O)N[C@H](C(=O)N[C@@H](CC(N)=O)C(=O)N[C@@H](Cc1c[nH]c2ccccc12)C(=O)N[C@@H](CC(C)C)C(=O)N[C@@H](CC(C)C)C(=O)N[C@@H](C)C(=O)NCC(=O)NCC(=O)N1CCC[C@H]1C(=O)N[C@@H](CO)C(=O)N[C@@H](CO)C(=O)NCC(=O)N[C@@H](C)C(=O)N1CCC[C@H]1C(=O)N1CCC[C@H]1C(=O)N1CCC[C@H]1C(=O)N[C@@H](CO)C(=O)N[C@@H](CCCCN)C(N)=O)C(C)C [Compound 166]
- Emax (GIP-R; Table 3): 77 to 84%
- Emax (GIP-R; Table 3A): 77 to 84%
- EC50 (GIP-R; read-out: EC50 GIP-R/nM, Table 3): 1 to 100 nM
- EC50 (GIP-R; read-out: EC50 GIP-R/nM, Table 3A): 1 to 100 nM
- pEC50 (GLP-1R [1]): < 6.00
- EC50 (GLP-1R [2]; EC50 GLP-1R/nM, Table 3): < 0.1 nM
- EC50 (GLP-1R [2]; EC50 GLP-1R/nM, Table 3A): < 0.1 nM
- Emax (GLP-1R [2]; Table 3): 109%
- Emax (GLP-1R [2]; Table 3A): 109%

Compound: CC[C@H](C)[C@H](NC(=O)[C@H](CO)NC(=O)[C@H](Cc1ccc(O)cc1)NC(=O)[C@H](CC(=O)O)NC(=O)[C@H](CO)NC(=O)[C@@H](NC(=O)[C@H](Cc1ccccc1)NC(=O)[C@@H](NC(=O)CNC(=O)[C@H](CCC(=O)O)NC(=O)/C=C/C(=O)NCCN1C(=O)CSC1=O)[C@@H](C)O)[C@@H](C)O)C(=O)N[C@@H](Cc1ccc(O)cc1)C(=O)N[C@@H](CC(C)C)C(=O)N[C@@H](CC(=O)O)C(=O)N[C@@H](CCCCN)C(=O)N[C@@H](CCC(N)=O)C(=O)N[C@@H](C)C(=O)N[C@@H](C)C(=O)NC(C)(C)C(=O)N[C@@H](CCC(=O)O)C(=O)N[C@@H](Cc1ccccc1)C(=O)N[C@H](C(=O)N[C@@H](CC(N)=O)C(=O)N[C@@H](Cc1c[nH]c2ccccc12)C(=O)N[C@@H](CC(C)C)C(=O)N[C@@H](CC(C)C)C(=O)N[C@@H](C)C(=O)NCC(=O)NCC(=O)N1CCC[C@H]1C(=O)N[C@@H](CO)C(=O)N[C@@H](CO)C(=O)NCC(=O)N[C@@H](C)C(=O)N1CCC[C@H]1C(=O)N1CCC[C@H]1C(=O)N1CCC[C@H]1C(=O)N[C@@H](CO)C(=O)N[C@@H](CCCCN)C(N)=O)C(C)C [Compound 167]
- EC50 (GIP-R; [3]): > 1000 nM
- EC50 (GIP-R; [4]): > 1000 nM
- Emax at 1 µM (GIP-R): < 1%
- pEC50 (GLP-1R [1]; [5]): < 6.00
- Emax (GLP-1R [2]; Table 3): 94 to 99%
- EC50 (GLP-1R [2]; [6]): 0.1 to 10 nM
- Emax (GLP-1R [2]; Table 3A): 94 to 99%
- EC50 (GLP-1R [2]; [7]): 0.1 to 10 nM

Compound: CC[C@H](C)[C@H](NC(=O)[C@H](CO)NC(=O)[C@H](Cc1ccc(O)cc1)NC(=O)[C@H](CC(=O)O)NC(=O)[C@H](CO)NC(=O)[C@@H](NC(=O)[C@H](Cc1ccccc1)NC(=O)[C@@H](NC(=O)CNC(=O)[C@H](CCC(=O)O)NC(=O)C[S+]([O-])CC(=O)NCCN1C(=O)CSC1=O)[C@@H](C)O)[C@@H](C)O)C(=O)N[C@@H](Cc1ccc(O)cc1)C(=O)N[C@@H](CC(C)C)C(=O)N[C@@H](CC(=O)O)C(=O)N[C@@H](CCCCN)C(=O)N[C@@H](CCC(N)=O)C(=O)N[C@@H](C)C(=O)N[C@@H](C)C(=O)NC(C)(C)C(=O)N[C@@H](CCC(=O)O)C(=O)N[C@@H](Cc1ccccc1)C(=O)N[C@H](C(=O)N[C@@H](CC(N)=O)C(=O)N[C@@H](Cc1c[nH]c2ccccc12)C(=O)N[C@@H](CC(C)C)C(=O)N[C@@H](CC(C)C)C(=O)N[C@@H](C)C(=O)NCC(=O)NCC(=O)N1CCC[C@H]1C(=O)N[C@@H](CO)C(=O)N[C@@H](CO)C(=O)NCC(=O)N[C@@H](C)C(=O)N1CCC[C@H]1C(=O)N1CCC[C@H]1C(=O)N1CCC[C@H]1C(=O)N[C@@H](CO)C(=O)N[C@@H](CCCCN)C(N)=O)C(C)C (stereo partly drawn) [Compound 170]
- EC50 (GIP-R; [3]): > 1000 nM
- EC50 (GIP-R; [4]): > 1000 nM
- Emax at 1 µM (GIP-R): 5 to 8%
- pEC50 (GLP-1R [1]; [5]): < 6.00
- Emax (GLP-1R [2]; Table 3): 99%
- EC50 (GLP-1R [2]; [6]): 1 to 10 nM
- Emax (GLP-1R [2]; Table 3A): 99%
- EC50 (GLP-1R [2]; [7]): 1 to 10 nM

Compound: CC[C@H](C)[C@H](NC(=O)[C@H](CO)NC(=O)[C@H](Cc1ccc(O)cc1)NC(=O)[C@H](CC(=O)O)NC(=O)[C@H](CO)NC(=O)[C@@H](NC(=O)[C@H](Cc1ccccc1)NC(=O)[C@@H](NC(=O)CNC(=O)[C@H](CCC(=O)O)NC(=O)CNC(=O)CCCCN1C(=O)CSC1=O)[C@@H](C)O)[C@@H](C)O)C(=O)N[C@@H](Cc1ccc(O)cc1)C(=O)N[C@@H](CC(C)C)C(=O)N[C@@H](CC(=O)O)C(=O)N[C@@H](CCCCN)C(=O)N[C@@H](CCC(N)=O)C(=O)N[C@@H](C)C(=O)N[C@@H](C)C(=O)NC(C)(C)C(=O)N[C@@H](CCC(=O)O)C(=O)N[C@@H](Cc1ccccc1)C(=O)N[C@H](C(=O)N[C@@H](CC(N)=O)C(=O)N[C@@H](Cc1c[nH]c2ccccc12)C(=O)N[C@@H](CC(C)C)C(=O)N[C@@H](CC(C)C)C(=O)N[C@@H](C)C(=O)NCC(=O)NCC(=O)N1CCC[C@H]1C(=O)N[C@@H](CO)C(=O)N[C@@H](CO)C(=O)NCC(=O)N[C@@H](C)C(=O)N1CCC[C@H]1C(=O)N1CCC[C@H]1C(=O)N1CCC[C@H]1C(=O)N[C@@H](CO)C(=O)N[C@@H](CCCCN)C(N)=O)C(C)C [Compound 171]
- EC50 (GIP-R; [3]): > 1000 nM
- EC50 (GIP-R; [4]): > 1000 nM
- Emax at 1 µM (GIP-R): 6.5%
- pEC50 (GLP-1R [1]; [5]): < 6.00
- Emax (GLP-1R [2]; Table 3): 93 to 98%
- EC50 (GLP-1R [2]; [6]): 1 to 10 nM
- Emax (GLP-1R [2]; Table 3A): 93 to 98%
- EC50 (GLP-1R [2]; [7]): 1 to 10 nM

Compound: CC[C@H](C)[C@H](NC(=O)[C@H](CO)NC(=O)[C@H](Cc1ccc(O)cc1)NC(=O)[C@H](CC(=O)O)NC(=O)[C@H](CO)NC(=O)[C@@H](NC(=O)[C@H](Cc1ccccc1)NC(=O)[C@@H](NC(=O)CNC(=O)[C@H](CCC(=O)O)NC(=O)CCNC(=O)CCCN1C(=O)CSC1=O)[C@@H](C)O)[C@@H](C)O)C(=O)N[C@@H](Cc1ccc(O)cc1)C(=O)N[C@@H](CC(C)C)C(=O)N[C@@H](CC(=O)O)C(=O)N[C@@H](CCCCN)C(=O)N[C@@H](CCC(N)=O)C(=O)N[C@@H](C)C(=O)N[C@@H](C)C(=O)NC(C)(C)C(=O)N[C@@H](CCC(=O)O)C(=O)N[C@@H](Cc1ccccc1)C(=O)N[C@H](C(=O)N[C@@H](CC(N)=O)C(=O)N[C@@H](Cc1c[nH]c2ccccc12)C(=O)N[C@@H](CC(C)C)C(=O)N[C@@H](CC(C)C)C(=O)N[C@@H](C)C(=O)NCC(=O)NCC(=O)N1CCC[C@H]1C(=O)N[C@@H](CO)C(=O)N[C@@H](CO)C(=O)NCC(=O)N[C@@H](C)C(=O)N1CCC[C@H]1C(=O)N1CCC[C@H]1C(=O)N1CCC[C@H]1C(=O)N[C@@H](CO)C(=O)N[C@@H](CCCCN)C(N)=O)C(C)C [Compound 172]
- EC50 (GIP-R; EC50 GIP-R/nM, Table 3): 10 to 100 nM
- EC50 (GIP-R; EC50 GIP-R/nM, Table 3A): 10 to 100 nM
- Emax (GIP-R; Table 3): 63 to 71%
- Emax (GIP-R; Table 3A): 63 to 71%
- pEC50 (GLP-1R [1]): < 6.00
- EC50 (GLP-1R [2]; EC50 GLP-1R/nM, Table 3): 1 to 10 nM
- EC50 (GLP-1R [2]; EC50 GLP-1R/nM, Table 3A): 1 to 10 nM
- Emax (GLP-1R [2]; Table 3): 98 to 101%
- Emax (GLP-1R [2]; Table 3A): 98 to 101%
